Data from patent US10351586B2, “Cytidine derivative dimers and applications thereof” (CHANGZHOU FANGYUAN PHARMACEUTICAL CO., LTD, priority 2014, dated 2019).
Marks after values point to notes of the source that are not given here.

Test system: HCT-116 human colon cancer xenografts
Assay: Tumor growth inhibition of HCT-116 human colon cancer xenografts in nude mice
Type: in vivo, Balb/c nude mice
Settings: for Relative tumor proliferation rate (T/C %) / Relative tumor volume (RTV) / Tumor growth inhibition rate (TGI %) / Tumor volume of HCT-116 human colon cancer xenografts: single IP injection (QD×1), D1 and D2 400 mg/kg, D3 350 mg/kg, D4 300 mg/kg; for Tumor volume of HCT-116 human colon cancer xenografts: Mean±SEM
Method: 2. Preparation of the test substance was performed by dissolving the test substance using the following solvents:
3. Animal experiments were performed. […] Animals were numbered using their tail number.
4.1 Tumor cells were human HCT-116 colon cancer cells purchased from the Institute of Cell Biology, Chinese Academy of Sciences (Beijing, China). F-12 medium (containing 10% FBS) was used to culture cells in a carbon dioxide incubator at about 37° C., saturated humidity, under 5% CO2 and 95% air. Before inoculation, cells in logarithmic growth phase were collected. After digested by 0.25% trypsin, the cells were washed with PBS once. The cells were resuspended with serum-free medium and counted. Serum-free medium were used for cell resuspension, until the cell concentration was adjusted to about 3×10^7 cell/mL.
4.2 Animal inoculation and grouping were performed.
The diameters (D) of the tumor nodules were measured three times a week with a circle sizer ruler. In addition, the following formula was applied to calculate the volume of the tumor nodules (V): V=[…](D/2)^3 generally for a spherical shape. Evaluation indexes of antitumor activity were tumor growth inhibition rate TGI (%) and relative tumor proliferation rate T/C (%).
The calculation formula of TGI was: TGI (%)=(Vcontrol−VTreatment)/Vcontrol)×100%. The relative tumor volume (RTV) was calculated by: RTV=Vt/V0, where V0 is the tumor volume at the time of group administration, and Vt is the tumor volume at the time of measurement.
The mice were weighed 3 times every week.
4.5 Data and statistical analysis were provided.

[1] = D1 400 mg/kg Day 7, D2 400 mg/kg Day 9, D3 350 mg/kg Day 11, D4 300 mg/kg Day 11, single IP

For `CCCCOC(=O)Nc1ccn(C2OC(COC(=O)CCCC(=O)OC[C@H]3O[C@@H](n4ccc(NC(=O)OCCCC)nc4=O)C(F)(F)[C@@H]3OC(=O)OCCCC)C(OC(=O)OCCCC)C2(F)F)c(=O)n1` (stereo in doubt) [Compound D1, 1,5-di-[4-N-(n-butyloxycarbonyl)-3′-O-(n-butoxycarbonyl)-2′-deoxy-2′,2′-difluoro-cytidine]glutarate], the “Relative tumor proliferation rate, minimum” value [1] was 28.36%, the “Tumor inhibition rate, maximum” value [1] was 91.49% and the “Relative tumor proliferation rate (T/C %)” value (Day 0) was 0.00%. For the same compound, the “Relative tumor volume (RTV)” value (Day 0) was 1.00, the “Tumor growth inhibition rate (TGI %)” value (Day 0) was 0.00% and the “Tumor volume of HCT-116 human colon cancer xenografts” value (Day 0) was 39.36 ± 6.16** mm^3. The “Relative tumor proliferation rate (T/C %)” value (Day 1) was 80.13%, the “Relative tumor volume (RTV)” value (Day 1) was 1.35 ± 0.24 and the “Tumor growth inhibition rate (TGI %)” value (Day 1) was 67.76%. For the same compound, the “Tumor volume of HCT-116 human colon cancer xenografts” value (Day 1) was 58.20 ± 17.45** mm^3, the “Relative tumor proliferation rate (T/C %)” value (Day 2) was 65.15% and the “Relative tumor volume (RTV)” value (Day 2) was 1.35 ± 0.24. For the same compound, the “Tumor growth inhibition rate (TGI %)” value (Day 2) was 73.77%, the “Tumor volume of HCT-116 human colon cancer xenografts” value (Day 2) was 58.20 ± 17.45** mm^3 and the “Relative tumor proliferation rate (T/C %)” value (Day 4) was 32.20%. The “Relative tumor volume (RTV)” value (Day 4) was 0.89 ± 0.12, the “Tumor growth inhibition rate (TGI %)” value (Day 4) was 87.46% and the “Tumor volume of HCT-116 human colon cancer xenografts” value (Day 4) was 37.24 ± 9.27** mm^3. The “Relative tumor proliferation rate (T/C %)” value (Day 7) was 28.36%, the “Relative tumor volume (RTV)” value (Day 7) was 1.16 ± 0.79 and the “Tumor growth inhibition rate (TGI %)” value (Day 7) was 91.49%. The “Tumor volume of HCT-116 human colon cancer xenografts” value (Day 7) was 36.82 ± 28.63** mm^3, the “Relative tumor proliferation rate (T/C %)” value (Day 9) was 28.77% and the “Relative tumor volume (RTV)” value (Day 9) was 1.61 ± 0.98. The “Tumor growth inhibition rate (TGI %)” value (Day 9) was 91.42%, the “Tumor volume of HCT-116 human colon cancer xenografts” value (Day 9) was 50.63 ± 36.49** mm^3 and the “Relative tumor proliferation rate (T/C %)” value (Day 11) was 34.47%. The “Relative tumor volume (RTV)” value (Day 11) was 3.18 ± 2.18, the “Tumor growth inhibition rate (TGI %)” value (Day 11) was 89.65% and the “Tumor volume of HCT-116 human colon cancer xenografts” value (Day 11) was 101.02 ± 78.57** mm^3. For the same compound, the “Relative tumor proliferation rate (T/C %)” value (Day 14) was 64.15%, the “Relative tumor volume (RTV)” value (Day 14) was 8.88 ± 6.75 and the “Tumor growth inhibition rate (TGI %)” value (Day 14) was 80.16%. For the same compound, the “Tumor volume of HCT-116 human colon cancer xenografts” value (Day 14) was 285.66 ± 237.94* mm^3, the “Relative tumor proliferation rate (T/C %)” value (Day 16) was 89.47% and the “Relative tumor volume (RTV)” value (Day 16) was 15.44 ± 11.56. The “Tumor growth inhibition rate (TGI %)” value (Day 16) was 72.62%, the “Tumor volume of HCT-116 human colon cancer xenografts” value (Day 16) was 495.95 ± 408.8** mm^3 and the “Relative tumor proliferation rate (T/C %)” value (Day 18) was 106.69%. The “Relative tumor volume (RTV)” value (Day 18) was 20.37 ± 13.96, the “Tumor growth inhibition rate (TGI %)” value (Day 18) was 67.62% and the “Tumor volume of HCT-116 human colon cancer xenografts” value (Day 18) was 647.07 ± 503.28** mm^3. For the same compound, the “Relative tumor proliferation rate (T/C %)” value (Day 21) was 138.14%, the “Relative tumor volume (RTV)” value (Day 21) was 32.34 ± 20.40 and the “Tumor growth inhibition rate (TGI %)” value (Day 21) was 58.38%. The “Tumor volume of HCT-116 human colon cancer xenografts” value (Day 21) was 1017.61 ± 749.53 mm^3, the “Relative tumor proliferation rate (T/C %)” value (Day 23) was 163.55% and the “Relative tumor volume (RTV)” value (Day 23) was 32.34 ± 20.40. The “Tumor growth inhibition rate (TGI %)” value (Day 23) was 56.91%, the “Tumor volume of HCT-116 human colon cancer xenografts” value (Day 23) was 1017.61 ± 749.53 mm^3 and the “Relative tumor proliferation rate (T/C %)” value (Day 25) was 155.09%. For the same compound, the “Relative tumor volume (RTV)” value (Day 25) was 33.53 ± 19.21, the “Tumor growth inhibition rate (TGI %)” value (Day 25) was 59.56% and the “Tumor volume of HCT-116 human colon cancer xenografts” value (Day 25) was 1044.35 ± 722.80 mm^3. The “Relative tumor proliferation rate (T/C %)” value (Day 28) was 198.76%, the “Relative tumor volume (RTV)” value (Day 28) was 42 ± 22 and the “Tumor growth inhibition rate (TGI %)” value (Day 28) was 51.78%. For the same compound, the “Tumor volume of HCT-116 human colon cancer xenografts” value (Day 28) was 1296.79 ± 847.87 mm^3, the “Relative tumor proliferation rate (T/C %)” value (Day 30) was 209.10% and the “Relative tumor volume (RTV)” value (Day 30) was 51.88 ± 24.88. For the same compound, the “Tumor growth inhibition rate (TGI %)” value (Day 30) was 43.36% and the “Tumor volume of HCT-116 human colon cancer xenografts” value (Day 30) was 1589.29 ± 983.15 mm^3.
